In the kinase profiling compilation of Christmann-Franck et al. (2016):

Assays:
Experiment in all cases: radiometric filter-binding kinase assay
[1] = tested on: AKT1 (human), P31749 [S473D]
[2] = target: AURKB (human) (UniProt Q96GD4)
[3] = target: CDK2 CCNA2 (human) (UniProt P20248+P24941)
[4] = target: CHEK1 (human) (UniProt O14757)
[5] = target: CHEK2 (human) (UniProt O96017)
[6] = target: CSK (human) (UniProt P41240)
[7] = target: CaMK1 (human) (UniProt Q14012)
[8] = target: DYRK3 (human) (UniProt O43781)
[9] = target: EPHA2 (human) (UniProt P29317)
[10] = target: EPHA4 (human) (UniProt P54764)
[11] = target: EPHB1 (human) (UniProt P54762)
[12] = target: EPHB2 (human) (UniProt P29323)
[13] = target: EPHB3 (human) (UniProt P54753)
[14] = target: GCK (human) (UniProt Q12851)
[15] = target: IKBKB (human) (UniProt O14920)
[16] = tested on: LCK (mouse); conditions: accession and sequence are those of the human protein
[17] = target: MAP2K1 (human) (UniProt Q02750)
[18] = target: MAP3K11 (human) (UniProt Q16584)
[19] = target: MAP3K7 TAB1 (human) (UniProt Q15750+O43318)
[20] = target: MAPK10 (human) (UniProt P53779)
[21] = target: MAPK8 (human) (UniProt P45983)
[22] = target: MARK2 (human) (UniProt Q7KZI7)
[23] = target: MINK1 (human) (UniProt Q8N4C8)
[24] = target: MST4 (human) (UniProt Q9P289)
[25] = target: MYLK (human) (UniProt Q15746)
[26] = target: NUAK1 (human) (UniProt O60285)
[27] = tested on: PAK2 (human), Q13177 [T402E]
[28] = target: PAK4 (human) (UniProt O96013)
[29] = target: PAK6 (human) (UniProt Q9NQU5)
[30] = target: PKN2 (human) (UniProt Q16513)
[31] = tested on: ROCK2 (rat); conditions: accession and sequence are those of the human protein
[32] = target: RPS6KA3 KD1 KD2 (human) (UniProt P51812)
[33] = target: SRC (human) (UniProt P12931)
[34] = target: TAOK1 (human) (UniProt Q7L7X3)
[35] = target: TBK1 (human) (UniProt Q9UHD2)
[36] = target: TTK (human) (UniProt P33981)

AURKB (human), sequence (Q96GD4 whole entry, looked up): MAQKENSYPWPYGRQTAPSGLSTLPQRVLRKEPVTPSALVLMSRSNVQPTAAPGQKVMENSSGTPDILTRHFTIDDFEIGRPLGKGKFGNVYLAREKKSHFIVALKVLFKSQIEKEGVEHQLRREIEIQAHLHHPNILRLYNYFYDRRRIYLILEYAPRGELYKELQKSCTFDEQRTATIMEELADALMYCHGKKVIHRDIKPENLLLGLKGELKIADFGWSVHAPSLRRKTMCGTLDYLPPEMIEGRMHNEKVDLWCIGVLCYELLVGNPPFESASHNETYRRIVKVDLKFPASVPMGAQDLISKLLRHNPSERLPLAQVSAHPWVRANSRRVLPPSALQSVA
PAK4 (human), sequence (O96013 whole entry, looked up): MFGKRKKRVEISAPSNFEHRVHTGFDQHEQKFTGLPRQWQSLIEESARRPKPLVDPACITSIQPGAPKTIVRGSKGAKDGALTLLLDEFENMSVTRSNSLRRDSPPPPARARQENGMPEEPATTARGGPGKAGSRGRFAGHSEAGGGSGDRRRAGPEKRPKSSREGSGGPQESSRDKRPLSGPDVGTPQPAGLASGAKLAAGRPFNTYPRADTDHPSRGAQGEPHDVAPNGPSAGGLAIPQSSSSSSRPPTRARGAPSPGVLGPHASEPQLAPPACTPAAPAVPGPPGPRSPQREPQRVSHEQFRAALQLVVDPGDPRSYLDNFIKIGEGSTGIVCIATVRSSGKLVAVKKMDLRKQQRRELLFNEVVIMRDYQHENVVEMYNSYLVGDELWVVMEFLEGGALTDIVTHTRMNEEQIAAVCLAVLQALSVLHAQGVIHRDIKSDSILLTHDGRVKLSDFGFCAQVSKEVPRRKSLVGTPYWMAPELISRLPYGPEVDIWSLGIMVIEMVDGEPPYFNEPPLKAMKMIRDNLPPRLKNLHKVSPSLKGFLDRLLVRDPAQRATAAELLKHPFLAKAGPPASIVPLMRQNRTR
PAK6 (human), sequence (Q9NQU5 whole entry, looked up): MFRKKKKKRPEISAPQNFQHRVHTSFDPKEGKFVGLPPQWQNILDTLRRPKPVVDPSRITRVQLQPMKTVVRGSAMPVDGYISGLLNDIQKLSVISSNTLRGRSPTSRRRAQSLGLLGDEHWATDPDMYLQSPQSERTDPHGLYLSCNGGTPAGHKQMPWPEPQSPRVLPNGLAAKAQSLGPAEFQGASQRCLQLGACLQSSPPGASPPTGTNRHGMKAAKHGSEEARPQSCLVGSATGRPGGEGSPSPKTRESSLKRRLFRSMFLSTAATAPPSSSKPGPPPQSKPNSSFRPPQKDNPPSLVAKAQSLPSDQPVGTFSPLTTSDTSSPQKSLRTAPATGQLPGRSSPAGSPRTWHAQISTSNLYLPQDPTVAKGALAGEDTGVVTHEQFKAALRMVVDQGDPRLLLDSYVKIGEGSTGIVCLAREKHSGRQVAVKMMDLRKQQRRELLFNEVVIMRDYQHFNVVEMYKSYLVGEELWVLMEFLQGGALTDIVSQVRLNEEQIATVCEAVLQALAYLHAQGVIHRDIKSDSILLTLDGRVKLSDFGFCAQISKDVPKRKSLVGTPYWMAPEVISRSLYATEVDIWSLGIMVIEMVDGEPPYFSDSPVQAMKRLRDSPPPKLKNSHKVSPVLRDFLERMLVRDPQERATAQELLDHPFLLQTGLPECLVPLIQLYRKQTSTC
NUAK1 (human), sequence (O60285 whole entry, looked up): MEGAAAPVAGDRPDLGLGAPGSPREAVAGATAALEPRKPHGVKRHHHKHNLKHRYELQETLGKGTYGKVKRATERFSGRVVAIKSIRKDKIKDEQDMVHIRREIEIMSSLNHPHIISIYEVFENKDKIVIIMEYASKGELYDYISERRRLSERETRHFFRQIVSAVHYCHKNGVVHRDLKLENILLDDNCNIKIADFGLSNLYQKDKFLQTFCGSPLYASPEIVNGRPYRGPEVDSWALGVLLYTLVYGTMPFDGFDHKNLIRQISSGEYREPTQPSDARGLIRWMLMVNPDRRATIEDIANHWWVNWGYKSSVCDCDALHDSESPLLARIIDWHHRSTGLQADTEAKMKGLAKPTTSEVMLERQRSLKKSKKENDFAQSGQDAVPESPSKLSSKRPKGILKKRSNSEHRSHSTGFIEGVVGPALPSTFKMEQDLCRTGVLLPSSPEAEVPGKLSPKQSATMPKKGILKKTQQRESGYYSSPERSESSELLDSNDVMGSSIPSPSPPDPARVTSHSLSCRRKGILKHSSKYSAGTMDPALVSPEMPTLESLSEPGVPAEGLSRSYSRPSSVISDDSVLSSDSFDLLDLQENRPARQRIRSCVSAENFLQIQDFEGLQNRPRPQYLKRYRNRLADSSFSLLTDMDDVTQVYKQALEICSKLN
IKBKB (human), sequence (O14920 whole entry, looked up): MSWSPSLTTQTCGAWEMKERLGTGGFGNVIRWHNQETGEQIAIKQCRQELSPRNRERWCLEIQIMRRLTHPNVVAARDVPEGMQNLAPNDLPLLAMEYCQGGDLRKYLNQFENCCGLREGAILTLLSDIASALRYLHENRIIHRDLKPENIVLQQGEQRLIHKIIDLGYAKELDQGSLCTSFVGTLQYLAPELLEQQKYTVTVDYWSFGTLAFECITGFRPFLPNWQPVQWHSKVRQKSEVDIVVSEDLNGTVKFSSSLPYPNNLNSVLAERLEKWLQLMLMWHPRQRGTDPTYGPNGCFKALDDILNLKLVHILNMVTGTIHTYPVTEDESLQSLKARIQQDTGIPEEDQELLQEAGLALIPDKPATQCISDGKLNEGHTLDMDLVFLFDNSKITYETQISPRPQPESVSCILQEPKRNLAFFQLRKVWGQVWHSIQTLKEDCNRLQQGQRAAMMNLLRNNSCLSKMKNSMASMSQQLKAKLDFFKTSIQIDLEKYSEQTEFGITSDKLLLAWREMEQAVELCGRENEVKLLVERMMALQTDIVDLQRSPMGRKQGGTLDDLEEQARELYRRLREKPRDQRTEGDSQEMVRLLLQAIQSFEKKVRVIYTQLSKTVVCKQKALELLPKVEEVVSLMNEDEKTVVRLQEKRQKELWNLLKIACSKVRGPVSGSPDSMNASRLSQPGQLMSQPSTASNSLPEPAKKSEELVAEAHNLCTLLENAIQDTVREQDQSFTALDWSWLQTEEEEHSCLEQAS
PAK2 (human), Q13177 [T402E], sequence (Q13177 whole entry T402E, looked up): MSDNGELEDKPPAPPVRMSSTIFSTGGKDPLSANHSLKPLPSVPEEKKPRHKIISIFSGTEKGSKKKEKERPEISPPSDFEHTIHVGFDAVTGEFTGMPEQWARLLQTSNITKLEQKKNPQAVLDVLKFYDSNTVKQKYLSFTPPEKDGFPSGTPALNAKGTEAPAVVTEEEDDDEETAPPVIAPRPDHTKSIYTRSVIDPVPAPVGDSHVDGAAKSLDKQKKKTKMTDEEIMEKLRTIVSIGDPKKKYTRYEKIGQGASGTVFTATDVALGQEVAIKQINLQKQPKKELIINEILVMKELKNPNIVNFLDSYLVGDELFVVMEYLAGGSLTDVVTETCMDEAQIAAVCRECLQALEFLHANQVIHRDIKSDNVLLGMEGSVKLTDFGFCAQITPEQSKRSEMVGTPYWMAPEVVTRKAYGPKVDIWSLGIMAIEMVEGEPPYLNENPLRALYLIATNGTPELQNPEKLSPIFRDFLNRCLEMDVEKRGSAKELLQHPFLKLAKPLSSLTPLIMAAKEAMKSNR
GCK (human), sequence (Q12851 whole entry, looked up): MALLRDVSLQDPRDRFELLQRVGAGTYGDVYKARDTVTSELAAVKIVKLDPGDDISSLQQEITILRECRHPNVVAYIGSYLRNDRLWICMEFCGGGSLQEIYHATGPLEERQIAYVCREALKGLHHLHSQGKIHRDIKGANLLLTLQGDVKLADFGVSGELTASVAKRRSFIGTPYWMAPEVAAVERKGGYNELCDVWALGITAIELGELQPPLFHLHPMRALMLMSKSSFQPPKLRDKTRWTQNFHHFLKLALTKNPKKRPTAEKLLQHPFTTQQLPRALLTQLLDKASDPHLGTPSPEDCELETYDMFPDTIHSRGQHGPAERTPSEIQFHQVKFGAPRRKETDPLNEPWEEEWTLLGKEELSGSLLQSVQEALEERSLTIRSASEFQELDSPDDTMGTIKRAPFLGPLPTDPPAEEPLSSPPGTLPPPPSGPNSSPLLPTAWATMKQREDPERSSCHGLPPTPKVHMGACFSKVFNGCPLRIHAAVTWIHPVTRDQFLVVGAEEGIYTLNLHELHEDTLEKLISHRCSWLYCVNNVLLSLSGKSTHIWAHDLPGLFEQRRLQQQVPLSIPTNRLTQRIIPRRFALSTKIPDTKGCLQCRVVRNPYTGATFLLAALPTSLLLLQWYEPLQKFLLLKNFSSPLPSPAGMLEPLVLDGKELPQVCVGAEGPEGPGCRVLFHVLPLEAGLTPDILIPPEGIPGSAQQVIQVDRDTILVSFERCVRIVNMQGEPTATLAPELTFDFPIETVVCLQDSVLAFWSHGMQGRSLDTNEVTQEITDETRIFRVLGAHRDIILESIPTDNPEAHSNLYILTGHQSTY
SRC (human), sequence (P12931 whole entry, looked up): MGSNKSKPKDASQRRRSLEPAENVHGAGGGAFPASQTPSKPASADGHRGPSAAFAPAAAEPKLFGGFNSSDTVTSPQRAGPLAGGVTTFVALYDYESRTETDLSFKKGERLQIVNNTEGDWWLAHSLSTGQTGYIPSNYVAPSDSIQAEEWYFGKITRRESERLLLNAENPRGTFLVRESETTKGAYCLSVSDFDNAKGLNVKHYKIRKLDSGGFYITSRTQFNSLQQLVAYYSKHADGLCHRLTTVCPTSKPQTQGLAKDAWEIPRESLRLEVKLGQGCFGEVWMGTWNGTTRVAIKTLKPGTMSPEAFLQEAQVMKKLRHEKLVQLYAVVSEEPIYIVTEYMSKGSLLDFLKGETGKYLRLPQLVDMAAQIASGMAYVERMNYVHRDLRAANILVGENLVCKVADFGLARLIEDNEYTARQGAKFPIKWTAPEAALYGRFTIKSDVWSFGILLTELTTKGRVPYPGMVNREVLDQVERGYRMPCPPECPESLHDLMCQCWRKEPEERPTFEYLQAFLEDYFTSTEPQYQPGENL

residual activity ([1]; compound 0.1 µM): 99% | residual activity ([1]; compound 1.0 µM): 97% | residual activity ([2]; compound 0.1 µM): 100% | residual activity ([2]; compound 1.0 µM): 102% | residual activity ([2]; compound 10.0 µM): 93% | residual activity ([3]; compound 0.1 µM): 98% | residual activity ([3]; compound 1.0 µM): 79% | residual activity ([3]; compound 10.0 µM): 88% | residual activity ([4]; compound 0.1 µM): 96% | residual activity ([4]; compound 1.0 µM): 92% | residual activity ([4]; compound 10.0 µM): 86% | residual activity ([5]; compound 0.1 µM): 92% | residual activity ([5]; compound 1.0 µM): 84% | residual activity ([5]; compound 10.0 µM): 82% | residual activity ([6]; compound 0.1 µM): 104% | residual activity ([6]; compound 1.0 µM): 101% | residual activity ([6]; compound 10.0 µM): 98% | residual activity ([7]; compound 0.1 µM): 106% | residual activity ([7]; compound 1.0 µM): 101% | residual activity ([7]; compound 10.0 µM): 89% | residual activity ([8]; compound 0.1 µM): 93% | residual activity ([8]; compound 1.0 µM): 98% | residual activity ([8]; compound 10.0 µM): 93% | residual activity ([9]; compound 0.1 µM): 103% | residual activity ([9]; compound 1.0 µM): 91% | residual activity ([9]; compound 10.0 µM): 91% | residual activity ([10]; compound 0.1 µM): 100% | residual activity ([10]; compound 1.0 µM): 101% | residual activity ([10]; compound 10.0 µM): 96% | residual activity ([11]; compound 0.1 µM): 126% | residual activity ([11]; compound 1.0 µM): 108% | residual activity ([11]; compound 10.0 µM): 115% | residual activity ([12]; compound 0.1 µM): 115% | residual activity ([12]; compound 1.0 µM): 105% | residual activity ([12]; compound 10.0 µM): 108% | residual activity ([13]; compound 0.1 µM): 104% | residual activity ([13]; compound 1.0 µM): 100% | residual activity ([13]; compound 10.0 µM): 86% | residual activity ([14]; compound 0.1 µM): 86% | residual activity ([14]; compound 1.0 µM): 72% | residual activity ([14]; compound 10.0 µM): 71% | residual activity ([15]; compound 0.1 µM): 91% | residual activity ([15]; compound 1.0 µM): 97% | residual activity ([15]; compound 10.0 µM): 100% | residual activity ([16]; compound 0.1 µM): 106% | residual activity ([16]; compound 1.0 µM): 92% | residual activity ([16]; compound 10.0 µM): 84% | residual activity ([17]; compound 0.1 µM): 97% | residual activity ([17]; compound 1.0 µM): 102% | residual activity ([17]; compound 10.0 µM): 97% | residual activity ([18]; compound 0.1 µM): 102% | residual activity ([18]; compound 1.0 µM): 106% | residual activity ([18]; compound 10.0 µM): 109% | residual activity ([19]; compound 0.1 µM): 100% | residual activity ([19]; compound 1.0 µM): 108% | residual activity ([19]; compound 10.0 µM): 111% | residual activity ([20]; compound 0.1 µM): 93% | residual activity ([20]; compound 1.0 µM): 103% | residual activity ([20]; compound 10.0 µM): 98% | residual activity ([21]; compound 0.1 µM): 98% | residual activity ([21]; compound 1.0 µM): 94% | residual activity ([22]; compound 0.1 µM): 89% | residual activity ([22]; compound 1.0 µM): 97% | residual activity ([22]; compound 10.0 µM): 83% | residual activity ([23]; compound 0.1 µM): 107% | residual activity ([23]; compound 1.0 µM): 93% | residual activity ([23]; compound 10.0 µM): 111% | residual activity ([24]; compound 0.1 µM): 116% | residual activity ([24]; compound 1.0 µM): 96% | residual activity ([24]; compound 10.0 µM): 108% | residual activity ([25]; compound 0.1 µM): 90% | residual activity ([25]; compound 1.0 µM): 95% | residual activity ([25]; compound 10.0 µM): 91% | residual activity ([26]; compound 0.1 µM): 105% | residual activity ([26]; compound 1.0 µM): 108% | residual activity ([26]; compound 10.0 µM): 101% | residual activity ([27]; compound 0.1 µM): 113% | residual activity ([27]; compound 1.0 µM): 103% | residual activity ([27]; compound 10.0 µM): 113% | residual activity ([28]; compound 0.1 µM): 91% | residual activity ([28]; compound 1.0 µM): 91% | residual activity ([28]; compound 10.0 µM): 85% | residual activity ([29]; compound 0.1 µM): 105% | residual activity ([29]; compound 1.0 µM): 108% | residual activity ([29]; compound 10.0 µM): 103% | residual activity ([30]; compound 0.1 µM): 78% | residual activity ([30]; compound 1.0 µM): 70% | residual activity ([30]; compound 10.0 µM): 58% | residual activity ([31]; compound 0.1 µM): 110% | residual activity ([31]; compound 1.0 µM): 94% | residual activity ([31]; compound 10.0 µM): 116% | residual activity ([32]; compound 0.1 µM): 87% | residual activity ([32]; compound 1.0 µM): 95% | residual activity ([32]; compound 10.0 µM): 81% | residual activity ([33]; compound 0.1 µM): 105% | residual activity ([33]; compound 1.0 µM): 100% | residual activity ([33]; compound 10.0 µM): 111% | residual activity ([34]; compound 0.1 µM): 102% | residual activity ([34]; compound 1.0 µM): 108% | residual activity ([34]; compound 10.0 µM): 91% | residual activity ([35]; compound 0.1 µM): 111% | residual activity ([35]; compound 10.0 µM): 93% | residual activity ([36]; compound 0.1 µM): 95% | residual activity ([36]; compound 1.0 µM): 91% | residual activity ([36]; compound 10.0 µM): 86%
Structure (SMILES): CCCCCc1ccc(/C=C/[C@H](O)[C@@H](CO)NC)cc1
